Data published in patent US11273144B2, “Compounds and compositions for the treatment of muscular disorders and bone disorders” (Epirium Bio Inc., priority 2012, dated 2022).
Where “and” joins values, the source holds several entries; their conditions need not be identical. Equal values may be shown once.

Key:
[1] = test system: mouse myoblast cell line, C2C12; experiment: Mouse myoblast assay (C2C12, Western blot); format: cell-based; settings: C2C12, enantiomers 10 nM to 1000 nM, within 24 hr
Experimental: Cells or skeletal muscle tissue samples were homogenized in 50 ul lysis buffer (1% triton X-100, 20 mmol/L Tris, 140 mmol/L NaCl, 2 mmol/L EDTA, and 0.1% SDS) with protease and phosphatase inhibitor cocktails supplemented with 1 mmol/L PMSF, 2 mmol/L Na3VO4 and 1 mmol/L NaP. Homogenates were passed through an insulin syringe five times, sonicated for 30 min at 4DC and centrifuged (12,000×g) for 10 min. The total protein content was measured in the supernatant. A total of 40)Ig of protein was loaded onto a 5% or 10% SDS-PAGE, electrotransferred, incubated for 1 h in blocking solution (5% nonfat dry milk in TBS plus 0.1% Tween 20 [TBS-T]), followed by either a 3-h incubation at room temperature or overnight incubation at 4DC with primary antibodies. Primary antibodies were typically diluted 1:1000 or 1:2000 in TBS-T plus 5% bovine serum albumin. Membranes were washed (3× for 5 min) in TBS-T and incubated 1 h at room temperature in the presence of HRP-conjugated secondary antibodies diluted 1:10,000 in blocking solution. Membranes were again washed 3 times in TBS-T, and the immunoblots were developed using an enhanced chemiluminescence detection kit. The band intensities were digitally quantified. All primary antibodies are commercially available. Epicatechin induces follistatin expression, suppresses myostatin expression and accelerates the differentiation of cultured mouse myoblasts into myotubes. […] The mouse myoblast cell line, C2C12, was grown to semi-confluence in 6-well tissue culture plates and then exposed to epicatechin (100 nM) for three days using literature-standardized differentiation inducing media: DMEM supplemented with 2% horse serum. Proteins were extracted, separated by conventional gel electrophoresis and stained as Western blots by reacting with commercially available antibodies specific for markers of muscle cell growth and differentiation. In experiments examining the comparative effects of (−) and (+) epicatechin enantiomers on muscle cells, the cells were grown to semi-confluence in 6 well plates, placed into literature-standardized differentiation medium containing horse serum, and then stimulated for 24 hours with (−) or (+) epicatechin enantiomers, at concentrations ranging from 10 nM to 1000 nM. The cells were then harvested as above, and Western blots were prepared to determine relative expression of PGCla and follistatin, using commercially available, specific, primary antibodies.

[2] = Effect on body growth of rats on dexamethasone with or without epicatechin; format: in vivo, SD rats; settings: for Femur Length / Tibia Length: 37th day; for WEIGHT Avg / LENGTH Avg: group average; for WEIGHT Ind: individual rat
Experimental: SD rats of the body weight 50-60 g and age 3-4 weeks were divided into 4 groups. […] All dosing were by subcutaneous (SC) mode of administration. Dosing of animals was continued for 36 days. Body weight was measured every alternate day, overall length was measured weekly. Animals were photographed periodically to further support data. Feed intake, general health and movement were assessed routinely. On 37th day animals were sacrificed and femur and tibia length were measured using Vernier Calipers. Blood was collected and stored.

[3] = epicatechin 3 MPK s/c followed by dexamethasone
[4] = epicatechin 10 MPK s/c followed by dexamethasone

## Oc1cc(O)c2c(c1)O[C@H](c1ccc(O)c(O)c1)[C@H](O)C2 [(−) epicatechin, (−)−epicatechin]
[1]
  expression of PGC1u: stimulated
  expression of follistatin: stimulated

## Oc1cc(O)c2c(c1)O[C@@H](c1ccc(O)c(O)c1)[C@@H](O)C2 [(+) epicatechin, (+)−epicatechin]
[1]
  expression of PGC1u: stimulated
  expression of follistatin: stimulated

## Oc1cc(O)c2c(c1)O[C@H](c1ccc(O)c(O)c1)[C@H](O)C2 [epicatechin]
[2]; [3]
  Femur Length: 29.57 mm
  Tibia Length: 34.91 mm
[2]; [4]
  Femur Length: 31.30 mm
  Tibia Length: 35.37 mm

## C[C@@H]1C[C@H]2[C@@H]3CCC4=CC(=O)C=C[C@]4(C)[C@@]3(F)[C@@H](O)C[C@]2(C)[C@@]1(O)C(=O)CO [DEX, Dexamethasone]
[2]; dexamethasone s/c alone
  Femur Length: 22.68 mm
  Tibia Length: 28.67 mm
[2]; Day 1, dexamethasone alone SC
  WEIGHT Avg: 59.3 g
  WEIGHT Ind: 55.4 g and 57.7 g and 64.8 g
[2]; Day 11, dexamethasone alone SC
  WEIGHT Avg: 89.1 g
  WEIGHT Ind: 91.1 g and 84.3 g and 91.9 g
[2]; Day 13, dexamethasone alone SC
  LENGTH Avg: 15.3 cm
[2]; Day 23, dexamethasone alone SC
  LENGTH Avg: 14.2 cm
  WEIGHT Avg: 85.7 g
  WEIGHT Ind: 88.0 g and 80.0 g and 89.0 g
[2]; Day 35, dexamethasone alone SC
  LENGTH Avg: 14.2 cm
  WEIGHT Avg: 96.1 g
  WEIGHT Ind: 103.9 g and 93.1 g and 91.5 g
